Assay results published in the CheMixHub viscosity set.
Values joined by “and” are separate entries in the source; they are usually repeats but may differ in a detail not shown here. Identical values can stand only once.

What was measured:
[1] = xn = mol fraction of the nth substance listed

CSC
Details | viscosity [mPa·s]
293.15 K, 101 kPa | 0.307

CCCCCCCCCCCCOC(C)=O
Details | viscosity [mPa·s]
303.15 K, 101.3 kPa | 3.089

CCCCCCCCCCCCCC(=O)OCC
100 kPa
Details | viscosity [mPa·s]
308.15 K | 3.322
318.15 K | 2.699
323.15 K | 2.451

Fc1c(F)c(F)c(F)c(F)c1F
viscosity [mPa·s]
Details | 293.15 K | 298.15 K | 303.15 K | 308.15 K | 313.15 K | 318.15 K | 323.15 K
101 kPa | 0.951 | – | 0.793 | – | 0.664 | – | 0.591
101.33 kPa | 0.9446 | 0.8695 | – | 0.7631 | – | 0.6708 | –

NCCN1CCNCC1
100 kPa
Details | viscosity [mPa·s]
298.15 K | 14.48
308.15 K | 11.34
318.15 K | 7.1

CC(=O)[O-].C[N+]1(CC2CO2)CCCC1=O (stereo not given)
101 kPa
Details | viscosity
293.15 K | 6.55 mPa·s
298.15 K | 5.55 mPa·s
303.15 K | 4.77 mPa·s
308.15 K | 4.13 mPa·s and 4.14 mPa·s
313.15 K | 3.62 mPa·s

NCCNCCN
101.33 kPa
Details | viscosity [mPa·s]
298.15 K | 5.52
308.15 K | 3.865
318.15 K | 3.048
323.15 K | 2.698

CCCCC(=O)O
Details | viscosity [mPa·s]
298.15 K, 101 kPa | 1.97

C1CCC(C2CCCCC2)CC1
102 kPa
Details | viscosity [mPa·s]
293.15 K | 4.06
303.15 K | 3.18
313.15 K | 2.56
323.15 K | 2.1

CCCC[n+]1ccc(C)cc1.N#C[S-]
101 kPa
Details | viscosity [mPa·s]
298.15 K | 85.69
308.15 K | 51.75
318.15 K | 33.88

CCCCO
Details | viscosity
293.15 K, 100 kPa | 2.873 mPa·s and 2.61 mPa·s and 2.868 mPa·s
293.15 K, 101 kPa | 2.929 mPa·s and 2.868 mPa·s
293.15 K, 101.33 kPa | 2.9 mPa·s
298 K, 101.3 kPa | 2.507 mPa·s
298 K, 101.33 kPa | 2.52 mPa·s
298.15 K, 101.3 kPa | 2.442 mPa·s
303 K, 101.33 kPa | 2.095 mPa·s
303.15 K, 101 kPa | 2.121 mPa·s and 2.002 mPa·s and 2.12 mPa·s
303.15 K, 101.3 kPa | 2.129 mPa·s
308 K, 101.3 kPa | 1.903 mPa·s
308.15 K, 101.3 kPa | 1.856 mPa·s
308.15 K, 101.33 kPa | 1.929 mPa·s and 1.949 mPa·s
313 K, 101.3 kPa | 1.62 mPa·s
313.15 K, 101 kPa | 1.7 mPa·s and 1.687 mPa·s
313.15 K, 101.3 kPa | 1.692 mPa·s and 1.817 mPa·s
318 K, 101.3 kPa | 1.456 mPa·s
318.15 K, 100 kPa | 1.563 mPa·s
318.15 K, 101.33 kPa | 1.487 mPa·s
323 K, 100 kPa | 1.215 mPa·s
323 K, 101.3 kPa | 1.334 mPa·s
323.15 K, 101 kPa | 1.361 mPa·s and 1.329 mPa·s
323.15 K, 101.33 kPa | 1.393 mPa·s and 1.393 mPa·s and 1.09 mPa·s

CCOC(=O)Cn1cc[n+](C)c1.[Cl-]
Details | viscosity [mPa·s]
298.15 K, 101 kPa | 348.6

CCCCOCCOCCOCCCC
101.3 kPa
Details | viscosity [mPa·s]
298.15 K | 2.16
308.15 K | 1.762
318.15 K | 1.408

CCCCCCCC[N+](C)(CCCCCCCC)CCCCCCCC.[Cl-]
101 kPa
Details | viscosity [mPa·s]
298.15 K | 2391
303.15 K | 1602
308.15 K | 1067
313.15 K | 766.1
318.15 K | 568.9

Cc1cccnc1
Details | viscosity [mPa·s]
298.15 K, 101 kPa | 0.8723

CCn1cc[n+](C)c1.O=C([O-])C(F)(F)C(F)(F)C(F)(F)C(F)(F)F
101 kPa
Details | viscosity [mPa·s]
298.15 K | 107.5
308.15 K | 65.87
318.15 K | 43.09

CC(=O)[O-].C[N+]1(CC2CO2)CCCC1=O (stereo not given) + CO
viscosity [mPa·s], [1], 101 kPa
Details | 293.15 K | 298.15 K | 303.15 K | 308.15 K | 313.15 K
x1 = 0.036 | 0.71 | 0.66 | 0.62 | 0.57 | 0.52
x1 = 0.0744 | 0.92 | 0.85 | 0.78 | 0.72 | 0.73
x1 = 0.1088 | 1.12 | 1.03 | 0.94 | 0.87 | 0.8
x1 = 0.2024 | 1.69 | 1.52 | 1.38 | 1.26 | 1.15
x1 = 0.3033 | 2.35 | 2.09 | 1.87 | 1.69 | 1.53
x1 = 0.4042 | 3.02 | 2.66 | 2.36 | 2.1 | 1.89
x1 = 0.504 | 3.68 | 3.22 | 2.83 | 2.51 | 2.24
x1 = 0.6015 | 4.28 | 3.71 | 3.25 | 2.86 | 2.54
x1 = 0.7036 | 4.91 | 4.23 | 3.68 | 3.23 | 2.85
x1 = 0.8051 | 5.51 | 4.72 | 4.09 | 3.57 | 3.14
x1 = 0.9086 | 6.14 | 5.21 | 4.49 | 3.9 | 3.42

OC[C@H]1O[C@@](CO)(O[C@H]2O[C@H](CO)[C@@H](O)[C@H](O)[C@H]2O)[C@@H](O)[C@@H]1O + CS(C)=O
viscosity [mPa·s], [1], 101 kPa
Details | 298.15 K | 308.15 K | 318.15 K
x1 = 0.006451 | 2.4 | 1.962 | 1.63
x1 = 0.01289 | 2.883 | 2.319 | 1.908
x1 = 0.01959 | 3.523 | 2.793 | 2.266
x1 = 0.0336 | 5.532 | 4.214 | 3.309
x1 = 0.04801 | 9.087 | 6.615 | 4.999
x1 = 0.05582 | 12.08 | 8.541 | 6.292
x1 = 0.06395 | 16.4 | 11.28 | 8.055
x1 = 0.07246 | 22.45 | 14.86 | 10.39
x1 = 0.08036 | 30.82 | 19.69 | 13.36
x1 = 0.09752 | 61.59 | 36.46 | 23.02
x1 = 0.1069 | 90.84 | 51.59 | 31.4
x1 = 0.117 | 139.8 | 75.48 | 43.98
x1 = 0.1263 | 211.4 | 109.3 | 61.19

C=C1CCC2CC1C2(C)C (stereo not given) + c1ccccc1
viscosity [mPa·s], [1], 101 kPa
Details | x2 = 0.3052 | x2 = 0.4296 | x2 = 0.5395 | x2 = 0.6373 | x2 = 0.7249 | x2 = 0.8039 | x2 = 0.8754 | x2 = 0.9405
303.15 K | 1.187 | 0.998 | 0.867 | 0.759 | 0.691 | 0.646 | 0.614 | 0.593
308.15 K | 1.106 | 0.936 | 0.807 | 0.71 | 0.655 | 0.619 | 0.587 | 0.566
313.15 K | 1.022 | 0.866 | 0.749 | 0.658 | 0.614 | 0.583 | 0.556 | 0.537

C[C@H](O)C(=O)O + C[N+](C)(C)CCO.[Cl-]
[1], 101 kPa, x2 = 0.3333
Details | viscosity [mPa·s]
303.15 K | 374.3
313.15 K | 187

CN1CCCN2CCCN=C12 + CC(=O)O
[1], 100 kPa, x1 = 0.1125
Details | viscosity [mPa·s]
294.45 K | 12.9
298.17 K | 11.3
308.1 K | 8.1
323.06 K | 5.4

CCCCC(=O)O + CCCCCCCCO
viscosity [mPa·s], [1], 100 kPa
Details | x1 = 0.0831 | x1 = 0.1619 | x1 = 0.2381 | x1 = 0.3512 | x1 = 0.4418 | x1 = 0.5665 | x1 = 0.6539 | x1 = 0.7441 | x1 = 0.8551 | x1 = 0.9417
293.15 K | 8.14 | 7.31 | 6.64 | 5.83 | 5.25 | 4.52 | 4.04 | 3.56 | 2.99 | 2.55
303.15 K | 5.85 | 5.4 | 5.01 | 4.47 | 4.06 | 3.51 | 3.14 | 2.78 | 2.36 | 2.06
313.15 K | 4.28 | 3.97 | 3.7 | 3.33 | 3.06 | 2.7 | 2.46 | 2.21 | 1.93 | 1.71
323.15 K | 3.21 | 3.01 | 2.83 | 2.59 | 2.4 | 2.15 | 1.99 | 1.82 | 1.61 | 1.45

CCOC(=O)C(Cl)(Cl)Cl
Details | viscosity [mPa·s]
323.15 K, 101 kPa | 1.037

CCCCCCCCCCCC(=O)O + CCCCCCCCCC(=O)O
[1], 100 kPa, x1 = 0.33
Details | viscosity [mPa·s]
293.15 K | 12.89
298.15 K | 10.76
303.15 K | 9.199
308.15 K | 7.939
313.15 K | 6.909
318.15 K | 6.059
323.15 K | 5.349
